Measurements from patent US20030104079A1, “Skin tissue regeneration promoters comprising ginsenoside Rb1” (Japan Science and Technology Corporation, Japan, priority 2000, published 2003).

Columns and labels:
open wound of skin = test: Open wound healing by intravenous preinfusion before punch biopsy; assay type: in vivo, Wistar rats
Experimental: Then, we (the present inventors) have examined whether intravenous administration of ginsenoside Rb1 before preparation of open wound of skin can promote regeneration and/or reconstruction of the skin tissue. For that purpose, ginsenoside Rb1 (12 μg) dissolved in physiological saline was intravenously administered once into male Wistar rats (body weight about 300 g), under inhalation anesthesia, subsequently, continuous intravenous infusion of ginsenoside Rb1 (12 μg/day) was conducted for 4 days by using an Alza osmotic minipump. Thereafter, the punch biopsy with diameter 6 mm was performed in the dorsal skin region of animals under inhalation anesthesia to make open wound, and simultaneously, ginsenoside Rb1 was continuously infused intravenously for 3 days.
An equal amount of physiological saline was administered intravenously in the control animals, for which the same open wound was prepared to leave the animals as they were.
On day 2 after finishing continuous intravenous administration of ginsenoside Rb1 or physiological saline (i.e. on day 5 after preparation of the open wound), the animals were anesthetized with pentobarbital and fixed transcardially with perfusion of 0.1 M phosphate buffer containing 4% paraformaldehyde. Thereafter, the skin tissue including the open wound was dissected out, post-fixed and embedded in paraffin according to the conventional method. Paraffin sections 5 μm thick were cut and stained with hematoxylin-eosin (HE). FIG. 3 is a photograph in place of drawing. […] “i” indicates incrustation or eschar, “ep” indicates stratified squamous epithelium of epidermis, and “by” indicates blood vessel.
Intravenous administration of physiological saline solution containing ginsenoside Rb1 (12 μg) was conducted once in male Wistar rats weighing about 300 g under inhalation anesthesia, subsequently, ginsenoside Rb1 was continuously infused intravenously for 4 days through an Alza osmotic minipump at a dose of 12 μg/day. […]

[1] = Observation of administered animals for side effects; assay type: in vivo, rats; conditions: present experiments, animals carefully observed
From the text: The amount of administration of ginsenoside Rb1, which is used as the preparation(s) for external or topical application to skin or the preparation(s) for external or topical application to mucosa, is far smaller than the amount of intravenous administration.
Actually, as indicated in PCT/JP00/04102 (Brain cell or nerve cell protecting agents comprising ginseng), as far as directing treatment or therapy of cerebral infarction by continuous intravenous administration in a dose of […] (weighing 300 g), dihydroginsenoside Rb1 is thought to be a quite safe pharmaceutical composition. The amount of administration of ginsenoside Rb1, which is used as the preparation(s) for external or topical application to skin or the preparation(s) for external or topical application to mucosa, is far smaller than the amount of intravenous administration.

cuttings of pothos = test: Hydroponic culture of cuttings of pothos (rooting); set-up: species or system pothos (Epipremunum aureum, golden pothos); conditions: 100 fg/ml in water
Experimental: Next, we have examined whether ginsenosides, especially ginsenoside Rb1, can promote generation, regeneration or reconstruction of not only skin tissue or mouth mucosal tissue but also plant tissues. For that purpose, one of foliage plants, pothos is selected. Six cuttings resembled with each other from the parent plant of pothos in the room of one of the inventors (Tanaka) were collected. Among them, 3 cuttings were cultured by hydroponics with the use of only water and the remaining three were cultured in water containing ginsenoside Rb1 at a concentration of 100 fg/ml. FIG. 9 is a photograph in place of drawing.
Then, we have further continued cultivation of the above cuttings with hydroponics and on day 22, again photographs were taken. FIG. 10 is a photograph in place of drawing. Left photograph in FIG. 10 is the cuttings of pothos cultured with only water for 22 days and right photograph in FIG. 10 is the cuttings cultured with water containing the low concentration of ginsenoside Rb1 (100 fg/ml). Waters with or without containing ginsenoside Rb1 for hydroponics were exchanged once in a week. We have further made observation of rooting region on day 27.
Next, we have examined whether a crude saponin fraction of ginseng, like ginsenoside Rb1 at low concentrations, can promote, generation, regeneration or reconstruction of the cutting of pothos. For that purpose, two cuttings resembled with each other from the parent plant of pothos were collected. Among them, the one cutting was cultured with only water and the remaining one was cultured in water containing the crude saponin fraction of ginseng at a concentration of 1450 fg/ml. FIG. 11 is a photograph in place of drawing. Left photograph in FIG. 11 is the cutting cultured with only water and right photograph in FIG. 11 is the cutting cultured with water containing the crude saponin fraction of ginseng (1450 fg/ml). […]

## CC(C)=CCC[C@](C)(O[C@@H]1O[C@H](CO[C@@H]2O[C@H](CO)[C@@H](O)[C@H](O)[C@H]2O)[C@@H](O)[C@H](O)[C@H]1O)[C@H]1CC[C@]2(C)[C@@H]1[C@H](O)C[C@@H]1[C@@]3(C)CC[C@H](O[C@@H]4O[C@H](CO)[C@@H](O)[C@H](O)[C@H]4O[C@@H]4O[C@H](CO)[C@@H](O)[C@H](O)[C@H]4O)C(C)(C)[C@@H]3CC[C@]12C [ginsenoside Rb1]
Open wound of skin; 12 μg/day iv 4 days before and 3 days after open wound, day 5 after open wound
  regeneration, generation and reconstruction of ruptured and excised blood vessels (FIG. 3): facilitated
Open wound of skin; 12 μg/day iv 4 days before and 3 days after open wound, day 5 after open wound, vs physiological saline
  regeneration and reconstruction of skin tissue (FIG. 3): regeneration and reconstruction of skin tissue were obviously promoted
Open wound of skin; continuous intravenous administration of low dosages
  effect on healthy tissues, ginsenoside Rb1-administered vs physiological saline-administered case: no clear difference was observed
[1]
  side effect in administered animals: no side effect or ill effect was noted
Cuttings of pothos; 22 days
  generation or regeneration of roots (FIG. 10): many roots were generated or regenerated
Cuttings of pothos; day 13, vs water alone
  growth of root (FIG. 9): growth of root is promoted
Cuttings of pothos; day 27, none on cuttings in water only
  secondary rooting arising from the primary rooting regions: clearly observed on all three cuttings
